According to PubChem BioAssay AID330 (DTP/NCI, 2004):
Several values for one entry are separate records, joined by “and”; a condition that tells them apart may be missing. Equal entries are not always repeated. Toxic doses and inconclusive results are not listed. Rule for the calls: active = survival T/C of 150% or more; inactive = T/C below 125% in these data. Bridge positions count the residues as written; N and C are the ends. Peptide text beside a SMILES is read from it. I, II: the chains in the order shown.

Test system: P388 leukemia ip, CD2F1 mice, survival T/C
Assay: NCI In Vivo Anticancer Drug Screen. Data for tumor model P388 Leukemia (intraperitoneal) in CD2F1 (CDF1) mice
Conditions: endpoint: median survival time, higher = longer survival
Procedure, shortened: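 Mice carrying the transplanted tumor received test compound or vehicle. Survival was recorded in each group, and the value is the treated-group measurement divided by that of the vehicle-treated control group.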

[1] = dose: 60.0 mg/kg/injection, schedule: Q01DX005 (ip), vehicle: Klucel (hydroxypropylcellulose) (HPC)
[2] = dose: 120.0 mg/kg/injection, schedule: Q01DX005 (ip), vehicle: Klucel (hydroxypropylcellulose) (HPC)
[3] = dose: 240.0 mg/kg/injection, schedule: Q01DX005 (ip), vehicle: Klucel (hydroxypropylcellulose) (HPC)
[4] = dose: 100.0 mg/kg/injection, schedule: Q04DX002 (ip), vehicle: Klucel (hydroxypropylcellulose) (HPC)
[5] = dose: 200.0 mg/kg/injection, schedule: Q04DX002 (ip), vehicle: Klucel (hydroxypropylcellulose) (HPC)
[6] = dose: 400.0 mg/kg/injection, schedule: Q04DX002 (ip), vehicle: Klucel (hydroxypropylcellulose) (HPC)
[7] = dose: 3.12 mg/kg/injection, schedule: Q01DX005 (ip), vehicle: Klucel (hydroxypropylcellulose) (HPC)
[8] = dose: 6.25 mg/kg/injection, schedule: Q01DX005 (ip), vehicle: Klucel (hydroxypropylcellulose) (HPC)
[9] = dose: 12.5 mg/kg/injection, schedule: Q01DX009 (ip), vehicle: saline with Tween-80
[10] = dose: 25.0 mg/kg/injection, schedule: Q01DX009 (ip), vehicle: saline with Tween-80
[11] = dose: 50.0 mg/kg/injection, schedule: Q01DX009 (ip), vehicle: saline with Tween-80
[12] = dose: 100.0 mg/kg/injection, schedule: Q01DX009 (ip), vehicle: saline with Tween-80
[13] = dose: 200.0 mg/kg/injection, schedule: Q01DX009 (ip), vehicle: saline with Tween-80
[14] = dose: 400.0 mg/kg/injection, schedule: Q01DX009 (ip), vehicle: saline with Tween-80
[15] = dose: 50.0 mg/kg/injection, schedule: Q01DX005 (ip), vehicle: saline with Tween-80
[16] = dose: 100.0 mg/kg/injection, schedule: Q01DX005 (ip), vehicle: saline with Tween-80
[17] = dose: 200.0 mg/kg/injection, schedule: Q01DX005 (ip), vehicle: saline with Tween-80
[18] = dose: 100.0 mg/kg/injection, schedule: Q04DX003 (ip), vehicle: saline with Tween-80
[19] = dose: 200.0 mg/kg/injection, schedule: Q04DX003 (ip), vehicle: saline with Tween-80
[20] = dose: 400.0 mg/kg/injection, schedule: Q04DX003 (ip), vehicle: saline with Tween-80
[21] = dose: 6.25 mg/kg/injection, schedule: Q01DX009 (ip), vehicle: Klucel (hydroxypropylcellulose) (HPC)
[22] = dose: 25.0 mg/kg/injection, schedule: Q01DX009 (ip), vehicle: Klucel (hydroxypropylcellulose) (HPC)
[23] = dose: 50.0 mg/kg/injection, schedule: Q01DX005 (ip), vehicle: Klucel (hydroxypropylcellulose) (HPC)
[24] = dose: 100.0 mg/kg/injection, schedule: Q01DX005 (ip), vehicle: Klucel (hydroxypropylcellulose) (HPC)
[25] = dose: 200.0 mg/kg/injection, schedule: Q01DX005 (ip), vehicle: Klucel (hydroxypropylcellulose) (HPC)
[26] = dose: 12.5 mg/kg/injection, schedule: Q01DX005 (ip), vehicle: Klucel (hydroxypropylcellulose) (HPC)
[27] = dose: 25.0 mg/kg/injection, schedule: Q01DX005 (ip), vehicle: Klucel (hydroxypropylcellulose) (HPC)

Measured: T/C

Nc1nc2nc(-c3ccccc3)nc(N)c2nc1C(=O)NN1CCCCC1
inactive: dose: 37.5 mg/kg/injection, schedule: Q01DX009 (ip), vehicle: saline with Tween-80 100 % of control | dose: 75.0 mg/kg/injection, schedule: Q01DX009 (ip), vehicle: saline with Tween-80 87 % of control | dose: 150.0 mg/kg/injection, schedule: Q01DX009 (ip), vehicle: saline with Tween-80 100 % of control

CCOc1ccc(-n2c(-c3ccc(F)cc3)c(N=Nc3ccccc3)sc2=N)cc1
inactive: [1] 96 % of control | [2] 102 % of control | [3] 108 % of control

Cc1cc2n(n1)C(c1ccccc1)=C(c1ccccc1)OC2(c1ccccc1)c1ccccc1
inactive: dose: 50.0 mg/kg/injection, schedule: Q04DX002 (ip), vehicle: Klucel (hydroxypropylcellulose) (HPC) 101 % of control | [4] 97 % of control | [5] 97 % of control | [6] 98 % of control

COc1ccc2c(c1OC)C[N+]1(C)CCc3cc4c(cc3C1=C2C)OCO4 (stereo not given)
inactive: dose: 1.56 mg/kg/injection, schedule: Q01DX005 (ip), vehicle: Klucel (hydroxypropylcellulose) (HPC) 99 % of control | [7] 99 % of control | [8] 103 % of control and 113 % of control

O=C1C2=Nc3ccccc3C(O)N2c2ccccc21 (stereo not given)
inactive: [9] 88 % of control | [10] 89 % of control | [11] 90 % of control and 97 % of control | [12] 93 % of control | [13] 94 % of control

CCN(CC)CN1C(=O)C2C3C=CC(C2C1=O)C1C2C(=O)N(CN(CC)CC)C(=O)C2C31 (stereo not given)
inactive: [10] 103 % of control | [11] 102 % of control and 111 % of control | [12] 116 % of control and 117 % of control and 119 % of control | [13] 119 % of control | [14] 111 % of control

ClCC1(CCl)COC(c2ccccc2)OC1
inactive: [12] 100 % of control | [13] 100 % of control | [14] 95 % of control

Cc1ccc2[nH]c(=S)n(-c3ccc(S(=O)(=O)N4CCCCC4)cc3)c(=O)c2c1
inactive: [15] 89 % of control | [16] 91 % of control | [17] 90 % of control

CCSCCC(N)C(=O)O (stereo not given)
inactive: [9] 95 % of control | [10] 100 % of control | [11] 100 % of control | [18] 104 % of control | [19] 100 % of control | [20] 109 % of control

C=C1C(=O)OC2CC1C(O)C/C(C)=C/CC/C(C)=C/C(O)CC2C (stereo not given)
inactive: [21] 104 % of control | dose: 12.5 mg/kg/injection, schedule: Q01DX009 (ip), vehicle: Klucel (hydroxypropylcellulose) (HPC) 110 % of control | [22] 104 % of control and 112 % of control

CCCCCCCCCCCCCCCCNc1cccc2ccccc12
inactive: dose: 100.0 mg/kg/injection, schedule: Q01DX009 (ip), vehicle: saline sonified 95 % of control | [12] 100 % of control | [18] 95 % of control | dose: 200.0 mg/kg/injection, schedule: Q01DX009 (ip), vehicle: saline sonified 105 % of control | [13] 90 % of control | [19] 86 % of control | dose: 400.0 mg/kg/injection, schedule: Q01DX009 (ip), vehicle: saline sonified 95 % of control | [14] 90 % of control | [20] 95 % of control

Nc1cc(S(=O)(=O)c2ccc(O)c(N)c2)ccc1O
inactive: dose: 100.0 mg/kg/injection, schedule: Q01DX009 (ip), vehicle: saline 111 % of control and 92 % of control | dose: 200.0 mg/kg/injection, schedule: Q01DX009 (ip), vehicle: saline 102 % of control and 104 % of control | dose: 400.0 mg/kg/injection, schedule: Q01DX009 (ip), vehicle: saline 100 % of control and 95 % of control

CC(C)C(NC(=O)C(N)CSSCC(N)C(=O)NC(C(=O)O)C(C)C)C(=O)O (stereo not drawn) (I: H-Cys-Val-OH / II: H-Cys-Val-OH; disulfide I:1-II:1; configuration not given here)
inactive: [23] 103 % of control | [24] 103 % of control | [25] 101 % of control

Cc1ccc(N=Cc2cccs2)cc1
inactive: dose: 50.0 mg/kg/injection, schedule: Q01DX009 (ip), vehicle: Klucel (hydroxypropylcellulose) (HPC) 115 % of control | dose: 100.0 mg/kg/injection, schedule: Q01DX009 (ip), vehicle: Klucel (hydroxypropylcellulose) (HPC) 115 % of control

CC1=C2CCC3(C)C(=C2OC1=O)C(C)=C(Cl)C(Br)C3Br (stereo not given)
inactive: [23] 102 % of control | [24] 111 % of control | [25] 118 % of control

OCC1CCN(CCOCc2ccccc2)C1 (stereo not given)
inactive: dose: 60.0 mg/kg/injection, schedule: Q01DX005 (ip), vehicle: saline with Tween-80 94 % of control | dose: 120.0 mg/kg/injection, schedule: Q01DX005 (ip), vehicle: saline with Tween-80 102 % of control

O=C(O)C1C2OC2C2OC2C1C(=O)O (stereo not given)
inactive: dose: 25.0 mg/kg/injection, schedule: Q01DX001 (ip), vehicle: Klucel (hydroxypropylcellulose) (HPC) 89 % of control | dose: 50.0 mg/kg/injection, schedule: Q01DX001 (ip), vehicle: Klucel (hydroxypropylcellulose) (HPC) 92 % of control | dose: 100.0 mg/kg/injection, schedule: Q01DX001 (ip), vehicle: Klucel (hydroxypropylcellulose) (HPC) 88 % of control

CSC(=S)S(=O)(=O)C12CC3CC(CC(C3)C1)C2
inactive: [21] 111 % of control | [22] 113 % of control and 114 % of control

O=C([O][Bi]([c]1ccccc1)[c]1ccccc1)c1ccccc1
inactive: [8] 113 % of control | [26] 106 % of control | [27] 102 % of control and 106 % of control | [23] 122 % of control

Cc1ccc(SCc2cn(C3CC(O)C(CO)O3)c(=O)[nH]c2=O)cc1 (stereo not given)
inactive: [1] 99 % of control | [2] 95 % of control | [3] 92 % of control

CC1(C)CC(C)(C)c2c1oc(=O)c1c3c(oc(=O)c21)C(C)(C)CC3(C)C
inactive: [7] 96 % of control | [8] 100 % of control | [26] 87 % of control | [27] 87 % of control and 90 % of control | [24] 90 % of control and 91 % of control

C=CC1CN2CCC1CC2C(O)c1ccnc2ccc(OC)cc12 (stereo not given) (tested in a mixture with another compound)
inactive: [11] 109 % of control | [12] 109 % of control

CC1SC(=O)NN=C1c1ccccc1 (stereo not given)
inactive: [11] 94 % of control | [12] 97 % of control | [13] 106 % of control

O=C1CC(O)(c2ccc(-c3ccccc3)cc2)CS1 (stereo not given)
inactive: dose: 100.0 mg/kg/injection, schedule: Q04DX003 (ip), vehicle: Klucel (hydroxypropylcellulose) (HPC) 101 % of control | dose: 200.0 mg/kg/injection, schedule: Q04DX003 (ip), vehicle: Klucel (hydroxypropylcellulose) (HPC) 99 % of control | dose: 400.0 mg/kg/injection, schedule: Q04DX003 (ip), vehicle: Klucel (hydroxypropylcellulose) (HPC) 92 % of control

COc1ccc(SS(=O)c2ccc(C)cc2)cc1 (stereo not given)
inactive: dose: 100.0 mg/kg/injection, schedule: Q01DX001 (ip), vehicle: other 105 % of control | dose: 200.0 mg/kg/injection, schedule: Q01DX001 (ip), vehicle: other 106 % of control | dose: 400.0 mg/kg/injection, schedule: Q01DX001 (ip), vehicle: other 111 % of control

O=c1ccc2cc3c(nc2[nH]1)[nH]c1ccccc13
inactive: [4] 101 % of control | [5] 99 % of control | [6] 101 % of control

COc1ncnc2nc(Cl)[nH]c12
inactive: [23] 100 % of control | [24] 102 % of control

CCOC(=O)C(Cc1ccccc1)C1(C)SCCN1C(=O)OCC (stereo not given)
inactive: dose: 25.0 mg/kg/injection, schedule: Q01DX005 (ip), vehicle: saline with Tween-80 101 % of control | [15] 105 % of control | [16] 100 % of control | [17] 103 % of control

COc1ccc2[nH]cc(CC(NC(C)=O)C(=O)O)c2c1 (stereo not given)
inactive: [23] 98 % of control | [24] 104 % of control | [25] 101 % of control
